Marks after values point to notes of the source that are not given here.
Legend:
4T1.2 tumors = experiment: Flow cytometry of immune cells in 4T1.2 tumors and spleens (satellite groups, day 11); assay type: in vivo, Balb/c mice
Experimental: (§1) Female Balb/c mice (6–8 weeks) were obtained from the Walter & Eliza Hall Institute (Melbourne, Australia). Animal experiments were performed in accordance with institutional guidelines of the Peter MacCallum Cancer Centre. To determine the utility of pixatimod in combination with a PD-1 checkpoint inhibitor antibody (clone RMP1–14 or isotype control antibody 2A3, Bio-X-Cell, NH, USA), mice were inoculated with 1 × 10^5 4T1.2 cells into the mammary fatpad. One week later, mice with similar sized tumors (mean tumor volume 56 mm^3) were randomised into four groups (n = 6 mice per group): saline + isotype antibody, pixatimod + isotype antibody, saline + anti-PD-1 antibody and pixatimod + anti-PD-1 antibody. Pixatimod was administered at 15 mg/kg IP weekly for 3 weeks (days 1, 8 and 15) and anti-PD-1 or isotype antibody (200 μg) were given IP on days 1, 4, 8, 11 and 15. The experiment was ended on day 18 post treatment initiation (25 days post inoculation) due to emerging toxicities in all treatment groups (e.g. piloerection). […]
Immune cells from the collagenase (Collagenase IV, Worthington Biochemical Corporation, NJ, USA) processed tumors and spleens were analysed by flow cytometry using an LSR II analyser (BD Biosciences). […]

NK cells = experiment: NK cell activation in spleen by route of administration; assay type: in vivo, C57BL/6 mice; settings: 20 mg/kg IP, IV or SC, spleens 2 days later; similar magnitude irrespective of route
Experimental: To investigate the effect that pixatimod route of administration has upon the activity of this compound, C57BL/6 mice were treated with pixatimod 20 mg/kg intraperitoneally (IP), intravenously (IV) or subcutaneously (SC) and 2 days later, spleens were isolated to study the activation levels of NK cells for surface expression of CD69 or intracellular expression of IFN-γ. Antibodies were CD3ε (145-2C11), NK1.1 (PK136), CD69 (H1.2F3), IFN-γ (XMG1.2), hamster IgG1 isotype (G235–2356) and rat IgG1 isotype (R3–34) were from BD Biosciences (San Jose, CA, USA). Intracellular staining for IFN-γ was performed following ex vivo stimulation of splenocytes for 4 h with 20 ng/ml PMA and 50 ng/ml ionomycin in the presence of 5 μg/mL brefeldin A. Intracellular staining for IFN-γ was performed following treatment with Cytofix/Cytoperm (BD Biosciences) solution. Flow cytometric data were acquired using a FACSCanto flow cytometer (BD Biosciences), and events were analysed using FlowJo Version 9.9.6 software (TreeStar, Ashland, OR, USA).

4T1.2 cells = experiment: Syngeneic 4T1.2 breast cancer model, tumor growth; assay type: in vivo, Balb/c mice; settings: day 18
Experimental: as §1, with “15.” for “15. The experiment was ended on day 18 post treatment initiation (25 days post inoculation) due to emerging toxicities in all treatment groups (e.g. piloerection).”
In the 4T1.2 model, the percentage tumor growth inhibition was determined according to the following formula: 100 × (1-ΔT/ ΔC) where ΔC and ΔT were calculated by subtracting the mean tumor volume in each group on day 1 of treatment from the mean tumor volume on the day of analysis. […] The frequency of clinical observations, and necropsy and histopathology findings, was calculated as applicable. […]

[1] = parameters: method as in PMID 25754234; settings: Mouse, 15 mg/kg IV (HED 73 mg); cited from earlier work
[2] = parameters: method as in PMID 21285983; settings: tumor-bearing immunocompetent mice; cited from earlier work
rats = experiment: Repeated weekly SC toxicology in rats (organ weights); assay type: in vivo; settings: weekly SC x5, 3, 12 and 48 mg/kg
Experimental: Supplementary file 40425_2018_363_MOESM2_ESM.pptx: Additional file 2: Effect of pixatimod dosing on selected organ weights in beagle dogs (IV and SC) and rats (SC). Repeated weekly IV exposure (× 5) of pixatimod increases the relative weights of liver (A) and kidney (B) but not thymus (C) nor spleen (D) in beagle dogs. […] Data shown is for combined sexes. […] Study size, n = 15 for control and 48 mg/kg groups and n = 10 for 3 and 12 mg/kg groups. […] Study size, n = 5 for control and 20 mg/kg groups and n = 3 for 2.5 and 7.5 mg/kg groups. *P < 0.05, **P < 0.01, ***P < 0.001 versus control (Kruskal-Wallis test for the dog study, ANOVA followed by Dunnett’s comparison for the rat study). (PPTX 65 kb)

With CC(C)CCC[C@@H](C)[C@H]1CC[C@H]2[C@@H]3CC[C@H]4C[C@@H](O[C@@H]5O[C@H](COS(=O)(=O)O)[C@@H](O[C@H]6O[C@H](COS(=O)(=O)O)[C@@H](O[C@H]7O[C@H](COS(=O)(=O)O)[C@@H](O[C@H]8O[C@H](COS(=O)(=O)O)[C@@H](OS(=O)(=O)O)[C@H](OS(=O)(=O)O)[C@H]8OS(=O)(=O)O)[C@H](OS(=O)(=O)O)[C@H]7OS(=O)(=O)O)[C@H](OS(=O)(=O)O)[C@H]6OS(=O)(=O)O)[C@H](OS(=O)(=O)O)[C@H]5OS(=O)(=O)O)CC[C@]4(C)[C@H]3CC[C@]12C [pixatimod] the “abundance of CD4+ or CD8+ T cells or NK cells in the spleens compared to control mice” value (4T1.2 tumors; day 11, spleens) was “little or no increase”, the “intratumoral NK cells” value (4T1.2 tumors; pixatimod alone, 4T1.2 tumors) was “didn’t significantly increase” and the “expression of IFN-γ and CD69 on NK cells” value (NK cells) was “increased”. For the same compound, the “Tumor growth compared to the vehicle plus isotype antibody (Control) group” value (4T1.2 cells) was “significantly inhibited”, the “tumor growth inhibition (%TGI)” value (4T1.2 cells; pixatimod 15 mg/kg IP weekly x3, antibody 200 μg IP twice weekly) was 68% and the “AUC0-last Week 1” value [1] was 1358 ^c μg.h/mL. For the same compound, the “exposure (AUC) required to achieve efficacy as a monotherapy” value [2] was 687 µg·h/mL and the Relative spleen weight (rats) was “increased in a dose-dependent manner”.
